7 molecules from ChEMBL document CHEMBL5230115, “Bioactive pyrrole-based compounds with target selectivity” (Eur J Med Chem, 2020) can be followed below.

pIC50: −log10 of the molar value.

Assay [1] concerns A549. Briefly: Antiproliferative activity against human A549 cells assessed as cell growth inhibition measured after 24 hrs by MTT assay. The assay is classed as functional, cell-based. Conditions: A549, 24 h. A general note: Tetrazolium assays rely on reduction of a dye to a coloured formazan, in cell work by metabolically active cells.
Assay [2] relates to A549. Nature of the assay: Antiproliferative activity against human A549 cells assessed as cell growth inhibition at 5 uM in presence of etoposide by CellTiter-Glo luminescent assay relative to control. Also on record: scale not given: the % may be the effect or the level left. Type of assay: functional.
For assay [3], the system named is A549. Briefly: Antiproliferative activity against human A549 cells assessed as cell growth inhibition at 5 uM in presence of doxorubicin by CellTiter-Glo luminescent assay relative to control. The assay is classed as functional. Also on record: scale not given: the % may be the effect or the level left. On the technique in general: Cellular ATP, detected with luciferase, serves as a proxy for viable cell number.

In assay [4] the target is Vascular endothelial growth factor receptor 2 (Homo sapiens, UniProt P35968). Briefly: Inhibition of VEGFR2 (unknown origin) at 25 nM using Poly(Glu, Tyr) as substrate by Kinase-Glo plus luminescent kinase assay. A general note: Kinase-Glo measures the ATP left after a reaction by luminescence.
Assay [5] has as its target Mitogen-activated protein kinase 3 (Homo sapiens) (UniProt P27361). Briefly: Inhibition of ERK1 (unknown origin) at 25 nM relative to control.
A further assay deals with PC-3. Briefly: Antiproliferative activity against human PC-3 cells assessed as cell growth inhibition measured after 24 hrs by MTT assay. The assay is classed as functional, cell-based. Conditions: PC-3, 24 h.

Chain of Vascular endothelial growth factor receptor 2 (P35968 whole entry): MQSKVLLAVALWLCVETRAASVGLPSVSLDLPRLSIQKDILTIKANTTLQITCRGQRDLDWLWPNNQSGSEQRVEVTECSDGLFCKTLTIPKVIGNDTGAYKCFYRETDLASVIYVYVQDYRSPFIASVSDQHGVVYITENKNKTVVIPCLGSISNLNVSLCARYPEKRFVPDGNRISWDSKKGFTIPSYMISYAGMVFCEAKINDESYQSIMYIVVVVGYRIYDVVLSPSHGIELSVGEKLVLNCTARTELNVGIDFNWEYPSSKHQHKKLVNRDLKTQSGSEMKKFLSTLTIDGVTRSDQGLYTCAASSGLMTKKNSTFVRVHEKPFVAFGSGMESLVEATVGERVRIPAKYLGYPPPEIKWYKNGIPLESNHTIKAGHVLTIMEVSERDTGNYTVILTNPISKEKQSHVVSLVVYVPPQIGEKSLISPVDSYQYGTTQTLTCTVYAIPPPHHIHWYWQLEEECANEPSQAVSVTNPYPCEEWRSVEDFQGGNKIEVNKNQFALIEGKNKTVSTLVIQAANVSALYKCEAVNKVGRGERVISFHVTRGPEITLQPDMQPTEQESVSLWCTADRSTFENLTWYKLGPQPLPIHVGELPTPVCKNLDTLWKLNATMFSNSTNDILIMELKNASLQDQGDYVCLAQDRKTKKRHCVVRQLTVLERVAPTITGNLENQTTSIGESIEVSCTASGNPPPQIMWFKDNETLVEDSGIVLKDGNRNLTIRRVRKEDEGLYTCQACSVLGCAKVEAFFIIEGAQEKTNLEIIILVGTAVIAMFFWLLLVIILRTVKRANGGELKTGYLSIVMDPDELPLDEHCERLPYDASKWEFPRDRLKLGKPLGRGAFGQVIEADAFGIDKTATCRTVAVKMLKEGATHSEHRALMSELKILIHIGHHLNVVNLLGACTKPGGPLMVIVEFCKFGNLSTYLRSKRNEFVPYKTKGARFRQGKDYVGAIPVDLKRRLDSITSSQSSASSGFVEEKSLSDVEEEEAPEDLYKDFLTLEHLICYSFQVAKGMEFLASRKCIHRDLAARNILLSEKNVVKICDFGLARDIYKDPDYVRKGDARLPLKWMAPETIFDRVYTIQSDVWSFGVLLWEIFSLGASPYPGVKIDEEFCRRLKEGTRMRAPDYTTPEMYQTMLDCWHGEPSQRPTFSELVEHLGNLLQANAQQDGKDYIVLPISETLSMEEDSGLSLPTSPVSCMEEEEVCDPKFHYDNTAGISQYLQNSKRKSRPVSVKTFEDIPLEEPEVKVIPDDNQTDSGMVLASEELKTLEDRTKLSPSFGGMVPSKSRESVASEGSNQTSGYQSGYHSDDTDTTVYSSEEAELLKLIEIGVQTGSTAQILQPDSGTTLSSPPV
Chain of Mitogen-activated protein kinase 3 (Homo sapiens) (P27361 whole entry): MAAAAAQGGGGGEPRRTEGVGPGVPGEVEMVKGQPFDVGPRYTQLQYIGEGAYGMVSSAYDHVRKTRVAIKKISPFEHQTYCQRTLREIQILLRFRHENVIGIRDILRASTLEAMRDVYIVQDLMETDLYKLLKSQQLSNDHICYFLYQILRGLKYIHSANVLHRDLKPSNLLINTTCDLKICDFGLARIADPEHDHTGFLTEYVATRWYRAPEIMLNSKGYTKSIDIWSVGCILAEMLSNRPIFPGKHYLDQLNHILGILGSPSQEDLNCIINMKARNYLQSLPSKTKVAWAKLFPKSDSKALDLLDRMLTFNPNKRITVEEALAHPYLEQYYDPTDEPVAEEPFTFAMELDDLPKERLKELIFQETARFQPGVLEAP

In general, pIC50 refers to the negative decadic logarithm of the IC50, by convention in mol/L. Turning to `Cn1ccc2c(Nc3cccc(Br)c3)nc(NC(=O)Nc3ccc(F)c(C(F)(F)F)c3)nc21`, the pIC50 in the assay on A549 [1] is 5.83. `COc1ccc(-c2nc3ccc(C(=O)Nc4cn(C)c(C(=O)Nc5cc(C(=O)NCCCN(C)C)n(CCCN)c5)n4)cc3[nH]2)cc1`: the Activity in the assay on A549 [2] worked out at 50%; in the assay with A549 [3] it was 22%.

As a reminder, the inhibition is the change of the read-out against control, counted positive when it falls. Turning to `Cc1cccc(NC(=O)Nc2ccc(Oc3ncnc4[nH]c(C)c(C)c34)cc2)c1`, the pIC50 in assay [4] is 7.87. Also, the inhibition in assay [5] was determined as 50%.

For `Cn1ccc2c(Nc3cccc(Br)c3)nc(NC(=O)Nc3ccc(Cl)c(C(F)(F)F)c3)nc21`, the pIC50 with PC-3 was 5.98. Consider `Cn1ccc2c(Nc3ccc(Cl)cc3)nc(NC(=O)Nc3ccc(F)cc3)nc21`, for which the pIC50 in the assay on A549 [1] is 5.81. With `Cc1cccc(NC(=O)Nc2ccc(Nc3ncnc4[nH]c(C)c(C)c34)cc2)c1`, the pIC50 in assay [4] was 7.92. Further, the inhibition in assay [5] amounted to 50%. In the case of `Cn1ccc2c(Nc3ccc(F)c(Cl)c3)nc(NC(=O)Nc3cccc(C(F)(F)F)c3)nc21`, in the assay on A549 [1], the pIC50 is 6.46.
